Laboratory results from ChEMBL document CHEMBL5335767, “Synthesis and study of new siderophore analog-ciprofloxacin conjugates with antibiotic activities against Pseudomonas aeruginosa and Burkholderia spp” (Eur J Med Chem, 2023).
Converted amounts (≈) assume the structure as drawn.

Columns and labels:
[1] = test system: Burkholderia thailandensis; test: Antibacterial activity against Burkholderia thailandensis E264TS32C12 under 1 uM FeCl3 medium by CLSI protocol based microdilution method; format: functional
[2] = test system: Burkholderia pseudomallei; test: Antibacterial activity against Burkholderia pseudomallei BPS2020IRBA003 under muller hinton medium by CLSI protocol based microdilution method; format: functional
Pseudomonas aeruginosa [3] = test: Antibacterial activity against Pseudomonas aeruginosa AM85 under succinate minimum medium by CLSI protocol based microdilution method; format: functional
[4] = test system: Burkholderia pseudomallei; test: Antibacterial activity against Burkholderia pseudomallei BPS2020IRBA002 under 1 uM FeCl3 medium by CLSI protocol based microdilution method; format: functional
[5] = test system: Burkholderia thailandensis; test: Antibacterial activity against Burkholderia thailandensis E264TS32C12 under muller hinton medium by CLSI protocol based microdilution method; format: functional
Pseudomonas aeruginosa [6] = test: Antibacterial activity against Pseudomonas aeruginosa PAO1 under 1 uM FeCl3 medium by CLSI protocol based microdilution method; format: functional
[7] = test system: Burkholderia thailandensis; test: Antibacterial activity against Burkholderia thailandensis E264TS32C47 under succinate minimum medium by CLSI protocol based microdilution method; format: functional
Pseudomonas aeruginosa [8] = test: Antibacterial activity against Pseudomonas aeruginosa PAO1 under muller hinton medium by CLSI protocol based microdilution method; format: functional
Pseudomonas aeruginosa [9] = test: Antibacterial activity against Pseudomonas aeruginosa PAD07 under muller hinton medium by CLSI protocol based microdilution method; format: functional
Pseudomonas aeruginosa [10] = test: Antibacterial activity against Pseudomonas aeruginosa PAD07 under succinate minimum medium by CLSI protocol based microdilution method; format: functional
[11] = test system: Burkholderia pseudomallei; test: Antibacterial activity against Burkholderia pseudomallei BPS2020IRBA002 under succinate minimum medium by CLSI protocol based microdilution method; format: functional
[12] = test system: Burkholderia thailandensis; test: Antibacterial activity against Burkholderia thailandensis E264TS32C10 under succinate minimum medium by CLSI protocol based microdilution method; format: functional
[13] = test system: Burkholderia thailandensis; test: Antibacterial activity against Burkholderia thailandensis E264TS32C10 under 1 uM FeCl3 medium by CLSI protocol based microdilution method; format: functional
[14] = test system: Burkholderia pseudomallei; test: Antibacterial activity against Burkholderia pseudomallei BPS2020IRBA005 under 1 uM FeCl3 medium after 48 hrs by CLSI protocol based microdilution method; format: functional
[15] = test system: Burkholderia thailandensis; test: Antibacterial activity against Burkholderia thailandensis E264 under succinate minimum medium by CLSI protocol based microdilution method; format: functional
Pseudomonas aeruginosa [16] = test: Antibacterial activity against Pseudomonas aeruginosa PAO1 under succinate minimum medium by CLSI protocol based microdilution method; format: functional
Pseudomonas aeruginosa [17] = test: Antibacterial activity against Pseudomonas aeruginosa AM85 under 1 uM FeCl3 medium by CLSI protocol based microdilution method; format: functional
[18] = test system: Burkholderia thailandensis; test: Antibacterial activity against Burkholderia thailandensis E264 under 1 uM FeCl3 medium by CLSI protocol based microdilution method; format: functional
[19] = test system: Burkholderia pseudomallei; test: Antibacterial activity against Burkholderia pseudomallei BPS2020IRBA001 under succinate minimum medium by CLSI protocol based microdilution method; format: functional
[20] = test system: Burkholderia pseudomallei; test: Antibacterial activity against Burkholderia pseudomallei K96243 under 1 uM FeCl3 medium by CLSI protocol based microdilution method; format: functional
[21] = test system: Burkholderia thailandensis; test: Antibacterial activity against Burkholderia thailandensis E264TS32C47 under muller hinton medium by CLSI protocol based microdilution method; format: functional
[22] = test system: Burkholderia pseudomallei; test: Antibacterial activity against Burkholderia pseudomallei BPS2020IRBA001 under muller hinton medium by CLSI protocol based microdilution method; format: functional
Pseudomonas aeruginosa [23] = test: Antibacterial activity against Pseudomonas aeruginosa AM85 under muller hinton medium by CLSI protocol based microdilution method; format: functional
[24] = test system: Burkholderia pseudomallei; test: Antibacterial activity against Burkholderia pseudomallei BPS2020IRBA002 under muller hinton medium by CLSI protocol based microdilution method; format: functional
[25] = test system: Burkholderia pseudomallei; test: Antibacterial activity against Burkholderia pseudomallei BPS2020IRBA004 under muller hinton medium by CLSI protocol based microdilution method; format: functional
[26] = test system: Burkholderia thailandensis; test: Antibacterial activity against Burkholderia thailandensis E264TS32C10 under muller hinton medium by CLSI protocol based microdilution method; format: functional
[27] = test system: Burkholderia thailandensis; test: Antibacterial activity against Burkholderia thailandensis E264TS32C12 under succinate minimum medium by CLSI protocol based microdilution method; format: functional
[28] = test system: Burkholderia thailandensis; test: Antibacterial activity against Burkholderia thailandensis E264TS32C47 under 1 uM FeCl3 medium by CLSI protocol based microdilution method; format: functional
[29] = test system: Burkholderia pseudomallei; test: Antibacterial activity against Burkholderia pseudomallei K96243 under succinate minimum medium by CLSI protocol based microdilution method; format: functional
[30] = test system: Burkholderia thailandensis; test: Antibacterial activity against Burkholderia thailandensis E264 under muller hinton medium by CLSI protocol based microdilution method; format: functional
Pseudomonas aeruginosa [31] = test: Antibacterial activity against Pseudomonas aeruginosa PAD07 under 1 uM FeCl3 medium by CLSI protocol based microdilution method; format: functional
[32] = test system: Burkholderia pseudomallei; test: Antibacterial activity against Burkholderia pseudomallei BPS2020IRBA005 under succinate minimum medium by CLSI protocol based microdilution method; format: functional
[33] = test system: Burkholderia pseudomallei; test: Antibacterial activity against Burkholderia pseudomallei BPS2020IRBA005 under muller hinton medium by CLSI protocol based microdilution method; format: functional
[34] = test system: Burkholderia pseudomallei; test: Antibacterial activity against Burkholderia pseudomallei K96243 under muller hinton medium by CLSI protocol based microdilution method; format: functional
[35] = test system: Burkholderia pseudomallei; test: Antibacterial activity against Burkholderia pseudomallei BPS2020IRBA003 under succinate minimum medium by CLSI protocol based microdilution method; format: functional
[36] = test system: Burkholderia pseudomallei; test: Antibacterial activity against Burkholderia pseudomallei BPS2020IRBA001 under 1 uM FeCl3 medium by CLSI protocol based microdilution method; format: functional
[37] = Antibacterial activity against Burkholderia pseudomallei BPS2020IRBA005 under 1 uM FeCl3 medium by CLSI protocol based microdilution method; format: functional; conditions: Burkholderia thailandensis
HepG2 = test: Cytotoxicity against human HepG2 cells at 23 ug/ml after 48 hrs by CellTiter-Glo luminescent cell viability assay; format: toxicity, cell-based; conditions: hepg2, 48 h, dose 23 µg/ml
[38] = test system: Burkholderia pseudomallei; test: Antibacterial activity against Burkholderia pseudomallei BPS2020IRBA003 under 1 uM FeCl3 medium by CLSI protocol based microdilution method; format: functional

Compound	MIC [1] [µg/mL]	MIC [2] [µg/mL]	MIC (Pseudomonas aeruginosa [3]) [µg/mL]	MIC [4] [µg/mL]	MIC [5] [µg/mL]	MIC (Pseudomonas aeruginosa [6]) [µg/mL]	MIC [7] [µg/mL]	MIC (Pseudomonas aeruginosa [8]) [µg/mL]	MIC (Pseudomonas aeruginosa [9]) [µg/mL]	MIC (Pseudomonas aeruginosa [10]) [µg/mL]	MIC [11] [µg/mL]	MIC [12] [µg/mL]	MIC [13] [µg/mL]	MIC [15] [µg/mL]	MIC (Pseudomonas aeruginosa [16]) [µg/mL]	MIC (Pseudomonas aeruginosa [17]) [µg/mL]	MIC [18] [µg/mL]	MIC [19] [µg/mL]	MIC [20] [µg/mL]	MIC [21] [µg/mL]	also measured
CC(C)(O/N=C(\C(=O)N[C@@H]1C(=O)N2C(C(=O)[O-])=C(C[n+]3ccccc3)CS[C@H]12)c1csc(N)n1)C(=O)O [CEFTAZIDIME]	8 (≈ 14.6 µM)	2 (≈ 3.66 µM)	0.25 (≈ 0.457 µM)	> 128	4 (≈ 7.32 µM)	1 (≈ 1.83 µM)	4 (≈ 7.32 µM)	1 (≈ 1.83 µM)	1 (≈ 1.83 µM)	0.25 (≈ 0.457 µM)	64 (≈ 117 µM)	2 (≈ 3.66 µM)	2 (≈ 3.66 µM)	4 (≈ 7.32 µM)	0.25 (≈ 0.457 µM)	4 (≈ 7.32 µM)	4 (≈ 7.32 µM)	2 (≈ 3.66 µM)	8 (≈ 14.6 µM)	4 (≈ 7.32 µM)	MIC [14]: 8 µg/mL (≈ 14.6 µM); MIC [22]: 2 µg/mL (≈ 3.66 µM); MIC (Pseudomonas aeruginosa [23]): 4 µg/mL (≈ 7.32 µM); MIC [24]: 128 µg/mL (≈ 234 µM); MIC [25]: 8 µg/mL (≈ 14.6 µM); MIC [26]: 1 µg/mL (≈ 1.83 µM); MIC [27]: 8 µg/mL (≈ 14.6 µM); MIC [28]: 4 µg/mL (≈ 7.32 µM); MIC [29]: 8 µg/mL (≈ 14.6 µM); MIC [30]: 4 µg/mL (≈ 7.32 µM); MIC (Pseudomonas aeruginosa [31]): 1 µg/mL (≈ 1.83 µM); MIC [32]: 8 µg/mL (≈ 14.6 µM)
O=C(O)c1cn(C2CC2)c2cc(N3CCN(C(=O)c4cc(=O)c(O)c[nH]4)CC3)c(F)cc2c1=O	> 128	> 128	> 128	> 128	> 128	32 (≈ 68.3 µM)	> 128	32 (≈ 68.3 µM)	32 (≈ 68.3 µM)	2 (≈ 4.27 µM)	> 128	> 128	> 128	> 128	32 (≈ 68.3 µM)	> 128	> 128	> 128	> 128	> 128	MIC [33]: > 128 µg/mL; MIC [34]: > 128 µg/mL; MIC [35]: > 128 µg/mL; MIC [36]: > 128 µg/mL; MIC [37]: > 128 µg/mL; Activity (HepG2): Non-Toxic; MIC [38]: > 128 µg/mL; MIC [22]: > 128 µg/mL; MIC (Pseudomonas aeruginosa [23]): > 128 µg/mL; MIC [24]: > 128 µg/mL; MIC [25]: > 128 µg/mL; MIC [26]: 32 µg/mL (≈ 68.3 µM); MIC [27]: > 1.8 µg/mL; MIC [28]: > 128 µg/mL; MIC [29]: > 128 µg/mL; MIC [30]: > 128 µg/mL; MIC (Pseudomonas aeruginosa [31]): 16 µg/mL (≈ 34.2 µM); MIC [32]: > 128 µg/mL
